Some results are limits rather than exact numbers.

One assay concerns the target hJAK2 (Homo sapiens (Human), UniProt O60674). The experiment in a line: hJAK2 LANCE TR-FRET enzymatic assay. The settings on record: read-out: JAK2 IC50. The format is biochemical. (In general: TR-FRET usually uses a lanthanide donor and a delayed reading to cut background.)
Another assay addresses TBK1 (Homo sapiens (Human), UniProt Q9UHD2). The experiment in a line: TBK1 TR-FRET enzymatic assay.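 Further: phosphorylation of a biotinylated Ser/Thr peptide by purified full-length recombinant TBK1, read by TR-FRET after 240 min at 25 °C, IC50 is the geometric mean of at least four runs.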
The target of a further assay is IKKε (Homo sapiens (Human), UniProt Q14164). The assay is described as follows: IKKε TR-FRET enzymatic assay. Type of assay: biochemical. The following applies: TR-FRET, 2×Km ATP; geometric mean of minimum four determinations; read-out: IKKe IC50.
IKKε, sequence (Q14164 whole entry): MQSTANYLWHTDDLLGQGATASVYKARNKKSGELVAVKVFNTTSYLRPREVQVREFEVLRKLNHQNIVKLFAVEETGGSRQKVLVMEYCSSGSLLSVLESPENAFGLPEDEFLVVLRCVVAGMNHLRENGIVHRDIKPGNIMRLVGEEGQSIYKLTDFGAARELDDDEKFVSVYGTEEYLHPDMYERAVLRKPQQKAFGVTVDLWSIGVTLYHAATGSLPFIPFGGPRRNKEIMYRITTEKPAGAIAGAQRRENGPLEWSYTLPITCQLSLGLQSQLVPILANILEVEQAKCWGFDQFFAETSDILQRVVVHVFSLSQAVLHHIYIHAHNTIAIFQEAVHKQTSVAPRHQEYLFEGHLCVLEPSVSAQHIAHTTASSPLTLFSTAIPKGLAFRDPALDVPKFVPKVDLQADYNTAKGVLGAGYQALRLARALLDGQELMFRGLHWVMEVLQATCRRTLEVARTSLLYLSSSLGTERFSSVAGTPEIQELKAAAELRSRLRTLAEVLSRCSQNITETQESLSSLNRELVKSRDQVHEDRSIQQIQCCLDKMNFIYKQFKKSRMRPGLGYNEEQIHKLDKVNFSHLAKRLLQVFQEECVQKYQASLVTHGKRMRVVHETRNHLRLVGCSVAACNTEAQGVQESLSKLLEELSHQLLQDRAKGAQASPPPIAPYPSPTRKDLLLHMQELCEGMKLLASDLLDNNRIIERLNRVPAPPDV

TBK1, sequence (Q9UHD2 whole entry): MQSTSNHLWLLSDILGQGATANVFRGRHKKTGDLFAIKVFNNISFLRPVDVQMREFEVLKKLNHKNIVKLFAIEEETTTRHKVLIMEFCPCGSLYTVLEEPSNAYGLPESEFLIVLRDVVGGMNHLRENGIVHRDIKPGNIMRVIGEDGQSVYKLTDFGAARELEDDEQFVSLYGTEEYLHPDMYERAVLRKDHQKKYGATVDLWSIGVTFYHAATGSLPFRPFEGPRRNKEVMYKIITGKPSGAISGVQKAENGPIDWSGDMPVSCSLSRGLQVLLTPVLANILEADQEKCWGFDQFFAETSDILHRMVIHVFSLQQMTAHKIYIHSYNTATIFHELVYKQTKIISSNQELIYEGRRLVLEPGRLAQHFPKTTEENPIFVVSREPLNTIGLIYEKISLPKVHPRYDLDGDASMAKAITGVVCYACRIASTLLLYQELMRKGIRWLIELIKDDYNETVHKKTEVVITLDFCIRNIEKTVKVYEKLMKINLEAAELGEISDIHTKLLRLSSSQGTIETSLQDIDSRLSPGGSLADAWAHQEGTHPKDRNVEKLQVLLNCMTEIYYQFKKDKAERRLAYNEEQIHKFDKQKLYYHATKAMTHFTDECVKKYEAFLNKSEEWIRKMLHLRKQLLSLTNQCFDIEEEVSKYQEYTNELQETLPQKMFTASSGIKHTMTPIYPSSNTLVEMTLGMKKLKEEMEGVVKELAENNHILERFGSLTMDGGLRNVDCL
hJAK2, sequence (O60674 whole entry): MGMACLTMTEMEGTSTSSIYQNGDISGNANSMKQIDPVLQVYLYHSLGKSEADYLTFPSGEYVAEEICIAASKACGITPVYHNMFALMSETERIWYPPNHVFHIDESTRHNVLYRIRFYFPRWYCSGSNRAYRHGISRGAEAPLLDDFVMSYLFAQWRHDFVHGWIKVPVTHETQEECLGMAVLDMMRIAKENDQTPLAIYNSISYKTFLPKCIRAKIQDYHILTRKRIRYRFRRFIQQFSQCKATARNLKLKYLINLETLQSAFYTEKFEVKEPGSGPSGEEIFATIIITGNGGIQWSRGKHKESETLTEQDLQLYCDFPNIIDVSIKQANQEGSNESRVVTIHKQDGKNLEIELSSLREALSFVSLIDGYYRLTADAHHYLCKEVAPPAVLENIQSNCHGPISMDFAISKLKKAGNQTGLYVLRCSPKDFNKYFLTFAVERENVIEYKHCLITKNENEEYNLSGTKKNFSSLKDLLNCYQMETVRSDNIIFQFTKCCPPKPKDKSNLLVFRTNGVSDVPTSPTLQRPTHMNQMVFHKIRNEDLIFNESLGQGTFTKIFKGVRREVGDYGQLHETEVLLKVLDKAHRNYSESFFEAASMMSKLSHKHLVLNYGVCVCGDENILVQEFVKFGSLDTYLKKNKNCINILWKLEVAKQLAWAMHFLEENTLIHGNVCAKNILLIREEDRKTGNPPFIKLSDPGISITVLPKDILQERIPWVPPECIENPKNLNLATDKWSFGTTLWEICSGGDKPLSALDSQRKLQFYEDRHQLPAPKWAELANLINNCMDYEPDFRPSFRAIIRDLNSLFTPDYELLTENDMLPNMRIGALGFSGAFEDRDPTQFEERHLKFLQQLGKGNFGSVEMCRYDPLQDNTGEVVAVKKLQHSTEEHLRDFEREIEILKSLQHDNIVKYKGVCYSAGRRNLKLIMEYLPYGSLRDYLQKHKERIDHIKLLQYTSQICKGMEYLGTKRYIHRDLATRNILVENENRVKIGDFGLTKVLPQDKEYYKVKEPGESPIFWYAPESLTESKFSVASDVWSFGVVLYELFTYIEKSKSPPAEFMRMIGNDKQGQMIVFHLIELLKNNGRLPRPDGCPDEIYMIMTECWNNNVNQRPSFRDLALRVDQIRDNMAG

For the compound `CC(=O)Nc1ccc(Nc2ncnc(-c3ccc(O[C@H]4CCN(C(=O)[C@H](C)O)C[C@H]4F)c(C#N)c3)n2)cn1` [Example 540, N-(5-((4-(3-cyano-4-(((3R,4S)-3-fluoro-1-((S)-2-hydroxypropanoyl)piperidin-4-yl)oxy)phenyl)-1,3,5-triazin-2-yl)amino)pyridin-2-yl)acetamide], the IC50 (usually the concentration that gives 50% inhibition) was at least 1000 nM on hJAK2, 20 nM against TBK1 and 21 nM at IKKε.

In the case of `CCOc1ccc(Nc2ncnc(-c3ccc(O[C@H]4CCN(C(=O)[C@H](C)O)C[C@H]4F)c(C#N)c3)n2)cn1` [Example 541, 5-(4-((6-ethoxypyridin-3-yl)amino)-1,3,5-triazin-2-yl)-2-(((3R,4S)-3-fluoro-1-((S)-2-hydroxypropanoyl)piperidin-4-yl)oxy)benzonitrile], the 50% inhibitory concentration (IC50) at hJAK2 was at least 1000 nM; against TBK1, 15 nM; on IKKε, 17 nM.

Turning to `C[C@@H]1CN(c2ccc(Nc3ncnc(-c4ccc(O[C@H]5CCN(C(=O)[C@@H]6CCC(=O)N6)C[C@H]5F)c(C#N)c4)n3)cc2)CCN1C1COC1` [Example 542, 2-(((3R,4S)-3-fluoro-1-((S)-5-oxopyrrolidine-2-carbonyl)piperidin-4-yl)oxy)-5-(4-((4-((R)-3-methyl-4-(oxetan-3-yl)piperazin-1-yl)phenyl)amino)-1,3,5-triazin-2-yl)benzonitrile], the IC50 on hJAK2 is 363 nM; at TBK1, 6 nM; on IKKε it was 4 nM.

On to `COc1cc(Nc2ncnc(-c3ccc(O[C@H]4CCN(C(=O)[C@@H]5CCC(=O)N5)C[C@H]4F)c(C#N)c3)n2)ccc1N1CCN(C2COC2)CC1` [Example 544, 2-(((3R,4S)-3-fluoro-1-((S)-5-oxopyrrolidine-2-carbonyl)piperidin-4-yl)oxy)-5-(4-((3-methoxy-4-(4-(oxetan-3-yl)piperazin-1-yl)phenyl)amino)-1,3,5-triazin-2-yl)benzonitrile], for which the half-maximal inhibitory concentration (IC50) was found to be 44 nM on hJAK2, 2 nM against TBK1 and 1 nM at IKKε.

As to `C[C@H](O)C(=O)N1CC[C@H](Oc2ccc(-c3ncnc(Nc4ccc5c(c4)CNC5)n3)cc2C#N)[C@H](F)C1` [Example 545, 2-(((3R,4S)-3-fluoro-1-((S)-2-hydroxypropanoyl)piperidin-4-yl)oxy)-5-(4-(isoindolin-5-ylamino)-1,3,5-triazin-2-yl)benzonitrile], the values for the IC50 at hJAK2, against TBK1 and at IKKε were 659 nM, 3 nM and 1 nM, respectively.

Turning to `COCC(=O)N1CC[C@H](Oc2ccc(-c3ncnc(Nc4ccc(N5CCN(C6COC6)CC5)cc4)n3)cc2C#N)[C@H](F)C1` [Example 546, 2-(((3R,4S)-3-fluoro-1-(2-methoxyacetyl)piperidin-4-yl)oxy)-5-(4-((4-(4-(oxetan-3-yl)piperazin-1-yl)phenyl)amino)-1,3,5-triazin-2-yl)benzonitrile], the IC50 came to 492 nM at hJAK2, 2 nM against TBK1 and 2 nM at IKKε.

As for `CO[C@@H](C)C(=O)N1CC[C@H](Oc2ccc(-c3ncnc(Nc4ccc(N5CCN(C6COC6)CC5)cc4)n3)cc2C#N)[C@H](F)C1` [Example 547, 2-(((3R,4S)-3-fluoro-1-((S)-2-methoxypropanoyl)piperidin-4-yl)oxy)-5-(4-((4-(4-(oxetan-3-yl)piperazin-1-yl)phenyl)amino)-1,3,5-triazin-2-yl)benzonitrile], the IC50 on hJAK2 is at least 1000 nM; at TBK1, 11 nM; on IKKε, 36 nM.

Take `N#Cc1cc(-c2ncnc(Nc3ccc(N4CCN(C5COC5)CC4)cc3)n2)ccc1O[C@H]1CCN(C(=O)[C@@H]2CNC(=O)C2)C[C@H]1F` [Example 548, 2-(((3R,4S)-3-fluoro-1-((S)-5-oxopyrrolidine-3-carbonyl)piperidin-4-yl)oxy)-5-(4-((4-(4-(oxetan-3-yl)piperazin-1-yl)phenyl)amino)-1,3,5-triazin-2-yl)benzonitrile]: the IC50 on hJAK2 was determined as 353 nM; against TBK1, 21 nM; at IKKε it was 96 nM.

For `CS(=O)(=O)CC(=O)N1CC[C@H](Oc2ccc(-c3ncnc(Nc4ccc(N5CCN(C6COC6)CC5)cc4)n3)cc2C#N)[C@H](F)C1` [Example 549, 2-(((3R,4S)-3-fluoro-1-(2-(methylsulfonyl)acetyl)piperidin-4-yl)oxy)-5-(4-((4-(4-(oxetan-3-yl)piperazin-1-yl)phenyl)amino)-1,3,5-triazin-2-yl)benzonitrile], the values for the IC50 on hJAK2, on TBK1 and at IKKε were 179 nM, 4 nM and 11 nM, respectively.

For `N#Cc1cc(-c2ncnc(Nc3ccc(N4CCN(C5COC5)CC4)cc3)n2)ccc1O[C@H]1CCN(C(=O)C2CC(O)C2)C[C@H]1F` (stereo partly drawn) [Example 550, 2-(((3R,4S)-3-fluoro-1-(3-hydroxycyclobutanecarbonyl)piperidin-4-yl)oxy)-5-(4-((4-(4-(oxetan-3-yl)piperazin-1-yl)phenyl)amino)-1,3,5-triazin-2-yl)benzonitrile], the results for the IC50 on hJAK2, on TBK1 and at IKKε were 750 nM, 11 nM and 36 nM, respectively.

Regarding `N#Cc1cc(-c2ncnc(Nc3ccc(N4CCN(C5COC5)CC4)cc3)n2)ccc1O[C@H]1CCN(C(=O)C2CCNC2=O)C[C@H]1F` (stereo partly drawn) [Example 551, 2-(((3R,4S)-3-fluoro-1-(2-oxopyrrolidine-3-carbonyl)piperidin-4-yl)oxy)-5-(4-((4-(4-(oxetan-3-yl)piperazin-1-yl)phenyl)amino)-1,3,5-triazin-2-yl)benzonitrile], the results for the IC50 at hJAK2, against TBK1 and on IKKε were 799 nM, 16 nM and 92 nM, respectively.

`N#Cc1cc(-c2ncnc(Nc3ccc(N4CCN(C5COC5)CC4)cc3)n2)ccc1O[C@H]1CCN(C(=O)[C@H]2CNC(=O)C2)C[C@H]1F` [Example 552, 2-(((3R,4S)-3-fluoro-1-((R)-5-oxopyrrolidine-3-carbonyl)piperidin-4-yl)oxy)-5-(4-((4-(4-(oxetan-3-yl)piperazin-1-yl)phenyl)amino)-1,3,5-triazin-2-yl)benzonitrile]: the half-maximal inhibitory concentration (IC50) stood at 562 nM at hJAK2, 28 nM against TBK1 and 174 nM on IKKε.

With `CC(C)(O)CC(=O)N1CC[C@H](Oc2ccc(-c3ncnc(Nc4ccc(N5CCN(C6COC6)CC5)cc4)n3)cc2C#N)[C@H](F)C1` [Example 553, 2-(((3R,4S)-3-fluoro-1-(3-hydroxy-3-methylbutanoyl)piperidin-4-yl)oxy)-5-(4-((4-(4-(oxetan-3-yl)piperazin-1-yl)phenyl)amino)-1,3,5-triazin-2-yl)benzonitrile], the half-inhibitory concentration (IC50) at hJAK2 was at least 1000 nM; against TBK1, 38 nM; on IKKε, 51 nM.

Regarding `C[C@H](O)C(=O)N1CC[C@H](Oc2ccc(-c3ncnc(Nc4ccc(-n5ccnc5)cc4)n3)cc2C#N)[C@H](F)C1` [Example 554, 5-(4-((4-(1H-imidazol-1-yl)phenyl)amino)-1,3,5-triazin-2-yl)-2-(((3R,4S)-3-fluoro-1-((S)-2-hydroxypropanoyl)piperidin-4-yl)oxy)benzonitrile], the results for the IC50 on hJAK2, against TBK1 and at IKKε were at least 1000 nM, 5 nM and 4 nM, respectively.

For the compound `N#Cc1cc(-c2ncnc(Nc3ccc(N4CCOCC4)cc3)n2)ccc1O[C@H]1CCN(C(=O)[C@@H](O)CO)C[C@H]1F` [Example 555, 2-(((3R,4S)-1-((S)-2,3-dihydroxypropanoyl)-3-fluoropiperidin-4-yl)oxy)-5-(4-((4-morpholinophenyl)amino)-1,3,5-triazin-2-yl)benzonitrile], the half-inhibitory concentration (IC50) came to 732 nM on hJAK2, 4 nM on TBK1 and 1 nM on IKKε.

For the origin of these results see patent US10040781B2, “Tank-binding kinase inhibitor compounds” (Gilead Sciences, Inc., priority 2014, dated 2018).
